The target of series [1] is AChE (Homo sapiens, UniProt P22303). Nature of the series: biochemical. Conditions: for IC50: pH 8, 25°C, triplicate.
A short description of series [2]: Solubility in water and solvents (compound description).
Where [3] appears, read: AChE 0.25 UI/mL, read-out: IC50.

Where “and” joins values, the source holds several entries; their conditions need not be identical. Equal entries are not always repeated. Where two headings read alike, the source gives them in different places.

Sequence of AChE (P22303 32-614): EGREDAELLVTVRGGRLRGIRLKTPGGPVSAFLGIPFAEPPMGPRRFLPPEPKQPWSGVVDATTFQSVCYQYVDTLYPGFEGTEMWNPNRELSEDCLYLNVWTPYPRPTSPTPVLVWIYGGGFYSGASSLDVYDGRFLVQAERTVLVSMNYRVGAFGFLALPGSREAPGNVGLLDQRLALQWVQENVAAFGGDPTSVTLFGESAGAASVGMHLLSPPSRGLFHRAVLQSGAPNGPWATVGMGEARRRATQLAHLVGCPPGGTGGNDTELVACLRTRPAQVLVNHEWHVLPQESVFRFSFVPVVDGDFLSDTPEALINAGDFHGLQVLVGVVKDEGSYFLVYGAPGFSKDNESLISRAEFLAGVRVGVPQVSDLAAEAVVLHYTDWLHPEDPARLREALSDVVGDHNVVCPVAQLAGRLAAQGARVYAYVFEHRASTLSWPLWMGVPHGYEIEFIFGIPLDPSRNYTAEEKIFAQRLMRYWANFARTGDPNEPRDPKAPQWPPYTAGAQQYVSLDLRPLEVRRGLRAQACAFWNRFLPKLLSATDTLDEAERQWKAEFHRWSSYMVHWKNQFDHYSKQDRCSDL

A word on the IC50: it is the concentration at which inhibition is half-maximal. `C=CCOc1ccc(/C=C/C(=O)c2c(O)cc(OCC=C)cc2OCC=C)cc1` [Compound 7, (E)-2′,4,4′-Triallyloxy-6′-hydroxychalcone]: the “AChE inhibitory activity (in words)” value in series [1] is “improved activities over naringenin”. Besides, the IC50 in series [1] (setting [3]) was < 100 µM and 13 µM. In series [2], the Solubility in acetone entry is recorded as “soluble”, the Solubility in dichloromethane entry is “highly soluble”, the Solubility in methanol result is recorded as “sparingly soluble” and the Solubility in water result is “insoluble”.

`COc1ccc(C2CC(=O)c3c(O)cc(OC)cc3O2)cc1` (stereo not drawn) [Compound 2, 5-Hydroxy-4′,7-dimethoxyflavanone]: the “AChE inhibitory activity (in words)” value in series [1] is “improved activities over naringenin”. In addition, the IC50 in series [1] (setting [3]) was < 100 µM and 75 µM. Moreover, in series [2], the Solubility in acetone entry is reported as “soluble”, the Solubility in dichloromethane result was “highly soluble”, the Solubility in methanol entry is recorded as “sparingly soluble” and the Solubility in water entry is listed as “insoluble”.

As for `O=C(/C=C/c1ccc(OCc2ccccc2)cc1)c1c(O)cc(OCc2ccccc2)cc1OCc1ccccc1` [Compound 8, (E)-2′,4,4′-Tribenzyloxy-6′-hydroxychalcone], the IC50 in series [1] (setting [3]) is greater than 100 µM. Further, in series [2], the Solubility in acetone result is on record as “soluble”, the Solubility in dichloromethane result is “soluble”, the Solubility in methanol entry is given as “insoluble” and the Solubility in water result is recorded as “insoluble”.

Take `COc1ccc(/C=C/C(=O)c2c(OC)cc(OC)cc2OC)cc1` [Compound 3, (E)-2′,4,4′,6′-Tetramethoxychalcone]: the IC50 in series [1] (IC50, AChE 0.25 UI/mL) was greater than 100 µM. For the same compound, in series [2], the Solubility in acetone entry is on record as “soluble”, the Solubility in dichloromethane result is recorded as “highly soluble”, the Solubility in methanol result is “sparingly soluble” and the Solubility in water result is given as “insoluble”.

For the compound `O=C(/C=C/c1ccc(OCc2ccccc2)cc1)c1c(OCc2ccccc2)cc(OCc2ccccc2)cc1OCc1ccccc1` [Compound 9, (E)-2′,4,4′,6′-Tetrabenzyloxychalcone], the “AChE inhibitory activity (in words)” value in series [1] was “negligible biological effects”. Further, in series [1] (setting [3]), the IC50 was greater than 100 µM. For the same compound, in series [2], the Solubility in acetone entry is reported as “soluble”, the Solubility in dichloromethane result is on record as “highly soluble”, the Solubility in methanol entry is “slightly soluble” and the Solubility in water result is recorded as “insoluble”.

Turning to `C=CCOc1ccc(C2CC(=O)c3c(O)cc(OCC=C)cc3O2)cc1` (stereo not drawn) [Compound 6, 4′,7-Diallyloxy-5-hydroxyflavanone], the “AChE inhibitory activity (in words)” value in series [1] was “negligible biological effects”. For the same compound, the IC50 in series [1] (setting [3]) is greater than 100 µM. For the same compound, in series [2], the Solubility in acetone result is “soluble”, the Solubility in dichloromethane result was “highly soluble”, the Solubility in methanol result is recorded as “sparingly soluble” and the Solubility in water result is on record as “insoluble”.

Turning to `C=CCOc1cc(O)c2c(c1)OC(c1ccc(O)cc1)CC2=O` (stereo not drawn) [Compound 5, 7-Allyloxy-4′,5-dihydroxyflavanone], in series [1], the “AChE inhibitory activity (in words)” value is listed as “improved activities over naringenin”. In addition, the half-inhibitory concentration (IC50) in series [1] (setting [3]) is < 100 µM and 48.4 µM. For the same compound, in series [2], the Solubility in acetone result is on record as “highly soluble”, the Solubility in dichloromethane entry was “sparingly soluble”, the Solubility in methanol result is reported as “sparingly soluble” and the Solubility in water result is listed as “insoluble”.

Compound `COc1cc(O)c2c(c1)OC(c1ccc(O)cc1)CC2=O` (stereo not drawn) [Compound 1, 4′,5-Dihydroxy-7-methoxyflavanone] displayed an IC50 in series [1] (IC50, AChE 0.25 UI/mL) greater than 100 µM.

Turning to `O=C1C[C@@H](c2ccc(O)cc2)Oc2cc(O)cc(O)c21` [Naringenin], it took 150 ± 4.6 µM to reach half-maximal inhibition in series [1] (IC50, AChE 0.25 UI/mL) (IC50).

Turning to `CCOc1ccc(/C=C/C(=O)c2c(O)cc(OCC)cc2OCC)cc1` [Compound 4, (E)-2′,4,4′-Triethoxy-6′-hydroxychalcone], the “AChE inhibitory activity (in words)” value in series [1] was “improved activities over naringenin”. The IC50 in series [1] (setting [3]) was < 100 µM and 39.8 µM. Besides, in series [2], the Solubility in acetone result is “soluble”, the Solubility in dichloromethane result is “highly soluble”, the Solubility in methanol entry was “slightly soluble” and the Solubility in water result is on record as “insoluble”.

Values taken from PMC8651387, “Synthesis and Evaluation of the Acetylcholinesterase Inhibitory Activities of Some Flavonoids Derived from Naringenin” (The Scientific World Journal, 2021).
